Three molecules from publication PMC12366361, “Biochemical properties of glycerol kinase from the hypersaline-adapted archaeon Haloferax volcanii” (Applied and Environmental Microbiology, 2025) can be followed below.

Data set [1] concerns the target T1, glycerol kinase (GK, His-GK) (Haloferax volcanii, UniProt D4GYI5).
T1 construct: gene glpK; N-terminal His-tagged GK (His-GK)
T1 sequence (D4GYI5 1-510): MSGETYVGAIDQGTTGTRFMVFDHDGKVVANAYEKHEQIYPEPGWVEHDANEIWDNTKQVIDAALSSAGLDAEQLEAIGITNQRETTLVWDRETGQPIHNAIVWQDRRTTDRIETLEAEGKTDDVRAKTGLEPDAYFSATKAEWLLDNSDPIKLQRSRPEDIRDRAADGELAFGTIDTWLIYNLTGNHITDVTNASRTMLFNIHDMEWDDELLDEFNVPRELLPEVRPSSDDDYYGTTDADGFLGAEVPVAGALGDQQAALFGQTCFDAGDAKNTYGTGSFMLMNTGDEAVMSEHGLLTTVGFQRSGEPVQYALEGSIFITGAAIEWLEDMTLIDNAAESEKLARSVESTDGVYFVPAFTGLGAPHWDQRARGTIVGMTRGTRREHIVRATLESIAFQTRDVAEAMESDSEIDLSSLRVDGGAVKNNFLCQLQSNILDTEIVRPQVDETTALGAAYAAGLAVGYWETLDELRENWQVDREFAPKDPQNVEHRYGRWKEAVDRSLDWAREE
Put plainly: coupled enzyme kinetics of purified His-GK (Hill fit, n = […]); further DSF stabilization together with glycerol ([…]°C). The data set is classed as biochemical.

Data set [2] has as its target T1, glycerol kinase (GK, His-GK). Put plainly: coupled enzyme kinetics of purified His-GK (Hill fit, n = […]); supported by DSF shift ([…] to […]°C) and SEC dimer-to-tetramer shift. The data set is classed as biochemical.
Data set [3] deals with the molecule itself. Put plainly: SEC; Superdex 200 Increase 10/300 GL, 50 mM HEPES pH 7.5, 2 M NaCl, 1 mM DTT, without glycerol; 0.3 mL/min; Ni2+-NTA-purified His-GK dialysed against the same buffer; mass from Kav against standards.
Data set [4] deals with the molecule itself. The data set is described as follows: SEC; Superdex 200 Increase 10/300 GL, 50 mM HEPES pH 7.5, 2 M NaCl, 1 mM DTT, with 10% (vol/vol) glycerol; 0.3 mL/min; Ni2+-NTA-purified His-GK dialysed against the same buffer; the isolated tetramer was also kept overnight at 4°C and run again; mass from Kav against standards. Background: SEC sorts molecules by how far they enter the pores of the column.

The Kd is the free concentration of one partner at which half of the binding sites on the other are occupied at equilibrium, for simple one-to-one binding. In data set [1], `Nc1ncnc2c1ncn2[C@@H]1O[C@H](COP(=O)(O)OP(=O)(O)OP(=O)(O)O)[C@@H](O)[C@H]1O` [ATP] yielded a Kd of 1600 ± 80 µM.
Turning to `OCC(O)CO` [glycerol], the Kd in data set [2] was 1440 ± 160 µM.

B1: Haloferax volcanii glycerol kinase fused to an N-terminal polyhistidine tag (His-GK) (enzyme, UniProt D4GYI5 1-510, looked up)
chain: T1 sequence (D4GYI5 1-510)
notes: calculated His-GK monomer 56.7 kDa; Found by SEC as a homodimer (no glycerol) or as a homodimer plus a homotetramer (10% glycerol); also called GlpK; H. volcanii GK; source: H. volcanii H1207-pJAM4351 grown in GlyMM, purified (Ni2+-NTA resin, then SEC); not shown: His6, N-terminal, kept
A word on the stoichiometry N: it is a count of units in the complex or per binding partner. Regarding B1, the results for the “stoichiometry N” value in data set [3] and in data set [4] were 2 and 4, respectively.
